From patent US12070447B2, “Parenteral liquid preparation comprising carbamate compound” (SK BIOPHARMACEUTICALS CO., LTD., priority 2016, dated 2024)
Converted amounts (≈) assume the structure as drawn. Like-named read-outs stand apart in the source and are kept apart here.

Assays:
[1] = Saturation solubility according to the concentration of cyclodextrin derivative; type: physicochemical; conditions: for solubility at 6 h: aqueous with cosolvent or surfactant or cyclodextrin; for solubility at 6 h / solubility: thermodynamic from solid, water for injection, room temperature; for solubility: water for injection without cyclodextrin, water, 0 % W/V cyclodextrin derivative (Comparative Example, no cyclodextrin)
Protocol: 2-Hydroxypropyl-β-cyclodextrin (trade name: Cavitron) and sulfobutyl ether-β-cyclodextrin sodium salt (trade name: Captisol) as cyclodextrin compounds were each dissolved in water for injection at various concentrations as shown in Table 1. To this was added an excess amount of carbamic acid (R)-1-(2-chlorophenyl)-2-tetrazol-2-yl)ethyl ester, and the mixture was stirred at room temperature for 6 hours. The mixture was then filtered through a membrane filter to remove insolubles, and the amount of carbamic acid (R)-1-(2-chlorophenyl)-2-tetrazol-2-yl)ethyl ester in the filtrate was measured by high performance liquid chromatography, by which the saturation solubility was calculated. The column used in this experiment was a 75×4.6 mm, 3.5 μm C18 column, and the mobile phase was a mixed solution of 20% by volume of acetonitrile and 80% by volume of 10 mM phosphate buffer (pH 3.0). The flow rate was 2.0 mL/min, and detection was performed at 215 nm.
As a comparative example, the saturation solubility of carbamic acid (R)-1-(2-chlorophenyl)-2-tetrazol-2-yl)ethyl ester to which no cyclodextrin compound had been added was measured at room temperature.
The calculated saturation solubility values are shown in Table 1, and the same results are shown graphically in FIG. 1.

[2] = Saturation solubility according to pH change; type: physicochemical; conditions: for solubility at 12 h: thermodynamic from solid
Protocol: The solubility of carbamic acid (R)-1-(2-chlorophenyl)-2-tetrazol-2-yl)ethyl ester in various aqueous (water) solvent conditions was measured: (1) purified water, (2) pH 1 hydrochloric acid solution, and (3) pH 3 to 8 phosphate buffer solution. Specifically, about 50 mg of carbamic acid (R)-1-(2-chlorophenyl)-2-tetrazol-2-yl)ethyl ester was placed in a suitable glass vial and 15 mL of solvent was added. The mixture was slowly stirred at room temperature for 12 hours on a rotary stirrer to reach equilibrium. Two samples for each aqueous solvent were transferred to a microtube, and centrifuged, and the pH was measured by taking the supernatant. After dilution with diluted solution for analysis, the concentration was analyzed using high performance liquid chromatography under the same conditions as in Experimental Example 1 above.

What does the source list for `NC(=O)O[C@@H](Cn1ncnn1)c1ccccc1Cl` [carbamic acid (R)-1-(2-chlorophenyl)-2-tetrazol-2-yl)ethyl ester]?
Solubility when cyclodextrin compound was added, compared with comparative example without cyclodextrin ([1]; Cavitron or Captisol added, in words): significantly improved; solubility at 6 h ([1]; Captisol 10 % W/V): 12800 µg/mL (≈ 47.8 mM); solubility at 6 h ([1]; Captisol 15 % W/V): 18000 µg/mL (≈ 67.2 mM); solubility at 6 h ([1]; Captisol 20 % W/V): 24500 µg/mL (≈ 91.5 mM); solubility at 6 h ([1]; Captisol 30 % W/V): 32500 µg/mL (≈ 121 mM); solubility at 6 h ([1]; Captisol 40 % W/V): 45100 µg/mL (≈ 168 mM); solubility at 6 h ([1]; Captisol (sulfobutyl ether-β-cyclodextrin sodium salt) 5 % W/V): 6700 µg/mL; solubility at 6 h ([1]; Cavitron 10 % W/V): 13200 µg/mL (≈ 49.3 mM); solubility at 6 h ([1]; Cavitron 15 % W/V): 19800 µg/mL (≈ 74 mM); solubility at 6 h ([1]; Cavitron 20 % W/V): 27900 µg/mL (≈ 104 mM); solubility at 6 h ([1]; Cavitron 30 % W/V): 38600 µg/mL (≈ 144 mM); solubility at 6 h ([1]; Cavitron 40 % W/V): 49500 µg/mL (≈ 185 mM); solubility at 6 h ([1]; Cavitron (2-hydroxypropyl-β-cyclodextrin) 5 % W/V): 5500 µg/mL (≈ 20.5 mM); solubility ([1]; Captisol column): 1800 µg/mL (≈ 6.72 mM); solubility ([1]; Cavitron column): 1800 µg/mL (≈ 6.72 mM); solubility at 12 h ([2]; pH 1 hydrochloric acid solution, pH 1, simulated gastric fluid, pH 1 hydrochloric acid solution, room temperature, read-out: Concentration (saturation solubility), Mean): 1950 µg/mL (≈ 7.28 mM); solubility at 12 h ([2]; pH 1 hydrochloric acid solution, pH 1, simulated gastric fluid, pH 1 hydrochloric acid solution, room temperature, read-out: Concentration (saturation solubility), Test solution 1): 1940 µg/mL (≈ 7.25 mM); solubility at 12 h ([2]; pH 1 hydrochloric acid solution, pH 1, simulated gastric fluid, pH 1 hydrochloric acid solution, room temperature, read-out: Concentration (saturation solubility), Test solution 2): 1970 µg/mL (≈ 7.36 mM); Effect of change in pH on solubility ([2]; pH 1 to 8 aqueous solvents, in words): not greatly affected by the change in pH; solubility at 12 h ([2]; pH 3.0 phosphate buffer solution, pH 3, aqueous buffer, pH 3.0 phosphate buffer solution, final pH 3.1, room temperature, read-out: Concentration (saturation solubility), Mean): 1870 µg/mL (≈ 6.99 mM); solubility at 12 h ([2]; pH 3.0 phosphate buffer solution, pH 3, aqueous buffer, pH 3.0 phosphate buffer solution, final pH 3.1, room temperature, read-out: Concentration (saturation solubility), Test solution 1): 1870 µg/mL (≈ 6.99 mM); solubility at 12 h ([2]; pH 3.0 phosphate buffer solution, pH 3, aqueous buffer, pH 3.0 phosphate buffer solution, final pH 3.1, room temperature, read-out: Concentration (saturation solubility), Test solution 2): 1860 µg/mL (≈ 6.95 mM); solubility at 12 h ([2]; pH 5.0 phosphate buffer solution, pH 5, aqueous buffer, pH 5.0 phosphate buffer solution, final pH 5.0, room temperature, read-out: Concentration (saturation solubility), Mean): 1910 µg/mL (≈ 7.14 mM); solubility at 12 h ([2]; pH 5.0 phosphate buffer solution, pH 5, aqueous buffer, pH 5.0 phosphate buffer solution, final pH 5.0, room temperature, read-out: Concentration (saturation solubility), Test solution 1): 1910 µg/mL (≈ 7.14 mM); solubility at 12 h ([2]; pH 5.0 phosphate buffer solution, pH 5, aqueous buffer, pH 5.0 phosphate buffer solution, final pH 5.0, room temperature, read-out: Concentration (saturation solubility), Test solution 2): 1910 µg/mL (≈ 7.14 mM); solubility at 12 h ([2]; pH 6.5 phosphate buffer solution, pH 6.5, aqueous buffer, pH 6.5 phosphate buffer solution, final pH 6.6, room temperature, read-out: Concentration (saturation solubility), Mean): 1860 µg/mL (≈ 6.95 mM); solubility at 12 h ([2]; pH 6.5 phosphate buffer solution, pH 6.5, aqueous buffer, pH 6.5 phosphate buffer solution, final pH 6.6, room temperature, read-out: Concentration (saturation solubility), Test solution 1): 1860 µg/mL (≈ 6.95 mM); solubility at 12 h ([2]; pH 6.5 phosphate buffer solution, pH 6.5, aqueous buffer, pH 6.5 phosphate buffer solution, final pH 6.6, room temperature, read-out: Concentration (saturation solubility), Test solution 2): 1860 µg/mL (≈ 6.95 mM); solubility at 12 h ([2]; pH 8.0 phosphate buffer solution, pH 8, aqueous buffer, pH 8.0 phosphate buffer solution, final pH 8.0, room temperature, read-out: Concentration (saturation solubility), Mean): 1810 µg/mL (≈ 6.76 mM); solubility at 12 h ([2]; pH 8.0 phosphate buffer solution, pH 8, aqueous buffer, pH 8.0 phosphate buffer solution, final pH 8.0, room temperature, read-out: Concentration (saturation solubility), Test solution 1): 1800 µg/mL (≈ 6.72 mM); solubility at 12 h ([2]; pH 8.0 phosphate buffer solution, pH 8, aqueous buffer, pH 8.0 phosphate buffer solution, final pH 8.0, room temperature, read-out: Concentration (saturation solubility), Test solution 2): 1820 µg/mL (≈ 6.8 mM); solubility at 12 h ([2]; purified water, pH 6.2, water, Purified water, final pH 6.2, room temperature, read-out: Concentration (saturation solubility), Mean): 1800 µg/mL (≈ 6.72 mM); solubility at 12 h ([2]; purified water, pH 6.2, water, Purified water, final pH 6.2, room temperature, read-out: Concentration (saturation solubility), Test solution 1): 1800 µg/mL (≈ 6.72 mM); solubility at 12 h ([2]; purified water, pH 6.2, water, Purified water, final pH 6.2, room temperature, read-out: Concentration (saturation solubility), Test solution 2): 1810 µg/mL (≈ 6.76 mM)
